Here are results for 6 molecules from paper PMC9870012 (Journal of Enzyme Inhibition and Medicinal Chemistry, 2023).

The target of series [1] is T1, human meprin β (Homo sapiens, UniProt Q16820).
T1 sequence (Q16820 62-701): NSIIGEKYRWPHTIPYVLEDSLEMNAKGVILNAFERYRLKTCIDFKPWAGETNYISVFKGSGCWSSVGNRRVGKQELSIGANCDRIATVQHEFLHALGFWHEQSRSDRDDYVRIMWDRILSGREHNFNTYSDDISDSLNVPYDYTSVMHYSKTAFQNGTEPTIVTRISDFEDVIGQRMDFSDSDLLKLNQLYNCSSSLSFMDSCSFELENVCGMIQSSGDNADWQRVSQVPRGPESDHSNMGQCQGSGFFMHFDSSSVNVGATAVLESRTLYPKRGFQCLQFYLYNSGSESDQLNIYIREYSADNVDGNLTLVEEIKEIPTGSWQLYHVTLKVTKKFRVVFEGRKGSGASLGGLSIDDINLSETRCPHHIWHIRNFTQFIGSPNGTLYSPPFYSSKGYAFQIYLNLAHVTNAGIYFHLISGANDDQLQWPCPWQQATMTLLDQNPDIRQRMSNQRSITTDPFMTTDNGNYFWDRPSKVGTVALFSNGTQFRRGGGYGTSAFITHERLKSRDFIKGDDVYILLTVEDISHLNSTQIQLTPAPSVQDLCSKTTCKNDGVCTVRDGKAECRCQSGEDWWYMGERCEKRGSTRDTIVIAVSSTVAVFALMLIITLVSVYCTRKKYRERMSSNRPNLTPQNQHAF
It counts as biochemical. Conditions: for Ki: Ki(app) Meprin β, geometric mean of three independent experiments with standard deviation factor; for fold increase in potency against meprin β: compared to 21e.

Series [2] relates to MMPs and ADAMs. Nature of the series: Off-target metalloprotease panel. It counts as biochemical, human. The following applies: 10 µM inhibitor concentration.
The target in series [3] is T2, MMP2 (Homo sapiens, UniProt P08253).
T2 sequence (P08253 110-660): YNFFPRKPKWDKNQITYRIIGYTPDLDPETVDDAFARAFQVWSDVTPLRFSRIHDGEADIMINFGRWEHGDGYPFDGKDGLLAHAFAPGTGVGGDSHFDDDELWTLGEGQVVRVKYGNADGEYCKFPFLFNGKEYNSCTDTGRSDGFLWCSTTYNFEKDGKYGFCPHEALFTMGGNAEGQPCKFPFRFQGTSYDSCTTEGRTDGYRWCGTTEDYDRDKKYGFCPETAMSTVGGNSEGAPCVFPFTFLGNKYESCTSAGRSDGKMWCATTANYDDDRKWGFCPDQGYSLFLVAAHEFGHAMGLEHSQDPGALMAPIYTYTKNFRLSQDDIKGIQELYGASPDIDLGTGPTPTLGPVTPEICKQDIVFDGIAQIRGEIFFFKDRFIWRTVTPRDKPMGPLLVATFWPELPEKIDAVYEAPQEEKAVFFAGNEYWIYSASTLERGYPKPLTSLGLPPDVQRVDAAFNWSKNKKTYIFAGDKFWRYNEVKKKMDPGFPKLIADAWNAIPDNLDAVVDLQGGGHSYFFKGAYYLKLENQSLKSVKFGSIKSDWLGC
As to the kind of experiment: Off-target metalloprotease inhibition, MMP2. Conditions: read-out: Residual activity MMP2. It counts as biochemical.

Series [4] deals with T3, ADAM10 (Homo sapiens, UniProt O14672).
T3 sequence (O14672 214-748): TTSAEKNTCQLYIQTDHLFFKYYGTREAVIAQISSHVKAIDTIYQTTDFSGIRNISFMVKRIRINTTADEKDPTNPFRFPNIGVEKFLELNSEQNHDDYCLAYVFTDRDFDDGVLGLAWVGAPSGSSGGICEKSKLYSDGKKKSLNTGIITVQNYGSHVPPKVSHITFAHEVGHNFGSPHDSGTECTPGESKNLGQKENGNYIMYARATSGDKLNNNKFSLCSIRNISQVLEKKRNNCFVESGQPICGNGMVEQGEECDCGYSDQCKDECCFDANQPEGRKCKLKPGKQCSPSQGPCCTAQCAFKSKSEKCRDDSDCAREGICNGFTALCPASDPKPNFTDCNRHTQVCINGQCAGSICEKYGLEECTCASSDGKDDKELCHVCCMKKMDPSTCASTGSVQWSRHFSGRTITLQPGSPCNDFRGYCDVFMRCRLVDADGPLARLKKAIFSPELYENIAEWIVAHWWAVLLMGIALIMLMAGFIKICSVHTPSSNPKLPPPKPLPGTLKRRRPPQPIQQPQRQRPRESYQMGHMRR
Nature of the series: Off-target metalloprotease inhibition, ADAM10. It counts as biochemical. Conditions: read-out: Residual activity ADAM10.

Series [5] is described as follows: Cell viability assay. It counts as cell-based. Conditions: human, SH-SY5Y cells.
Series [6] concerns the target ADAM17 (Homo sapiens, UniProt P78536). As to the kind of experiment: Off-target metalloprotease inhibition, ADAM17. It counts as biochemical. Conditions: read-out: Residual activity ADAM17.
Series [7] has as its target MMP9 (Homo sapiens, UniProt P14780). As to the kind of experiment: Off-target metalloprotease inhibition, MMP9. It counts as biochemical. The following applies: read-out: Residual activity MMP9.
The target of series [8] is T4, human meprin α (Homo sapiens, UniProt Q16819).
T4 sequence (Q16819 66-746): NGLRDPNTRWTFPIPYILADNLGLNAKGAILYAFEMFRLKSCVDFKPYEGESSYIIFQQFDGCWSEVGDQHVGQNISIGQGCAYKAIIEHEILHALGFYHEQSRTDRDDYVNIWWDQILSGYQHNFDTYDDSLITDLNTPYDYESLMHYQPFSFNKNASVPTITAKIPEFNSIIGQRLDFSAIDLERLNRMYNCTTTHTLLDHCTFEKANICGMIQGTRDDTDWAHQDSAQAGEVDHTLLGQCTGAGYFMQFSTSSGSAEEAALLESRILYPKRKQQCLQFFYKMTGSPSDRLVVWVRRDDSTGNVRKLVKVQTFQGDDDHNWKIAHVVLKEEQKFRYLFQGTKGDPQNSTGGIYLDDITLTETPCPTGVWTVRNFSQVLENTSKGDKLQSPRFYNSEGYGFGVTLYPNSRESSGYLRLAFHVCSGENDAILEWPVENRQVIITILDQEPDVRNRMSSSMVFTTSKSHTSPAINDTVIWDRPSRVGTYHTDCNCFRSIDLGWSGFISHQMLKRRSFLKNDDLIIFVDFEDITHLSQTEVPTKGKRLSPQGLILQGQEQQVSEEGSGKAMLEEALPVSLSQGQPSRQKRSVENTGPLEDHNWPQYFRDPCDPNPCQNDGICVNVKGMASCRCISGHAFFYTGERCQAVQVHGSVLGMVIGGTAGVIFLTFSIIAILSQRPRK
It counts as biochemical. The following applies: for Ki: Ki(app) Meprin α, geometric mean of three independent experiments with standard deviation factor; for SF: selectivity factor (Ki(app) meprin β/Ki(app) meprin α): meprin α over meprin β.

The target in series [9] is MMP13 (Homo sapiens, UniProt P45452). Nature of the series: Off-target metalloprotease inhibition, MMP13. It counts as biochemical. Conditions: read-out: Residual activity MMP13.
Series [10] can be described thus: Cell viability assay. It counts as cell-based. Conditions: human, Hep-G2 cells.

Chain of MMP9 (P14780 107-707 limits assumed): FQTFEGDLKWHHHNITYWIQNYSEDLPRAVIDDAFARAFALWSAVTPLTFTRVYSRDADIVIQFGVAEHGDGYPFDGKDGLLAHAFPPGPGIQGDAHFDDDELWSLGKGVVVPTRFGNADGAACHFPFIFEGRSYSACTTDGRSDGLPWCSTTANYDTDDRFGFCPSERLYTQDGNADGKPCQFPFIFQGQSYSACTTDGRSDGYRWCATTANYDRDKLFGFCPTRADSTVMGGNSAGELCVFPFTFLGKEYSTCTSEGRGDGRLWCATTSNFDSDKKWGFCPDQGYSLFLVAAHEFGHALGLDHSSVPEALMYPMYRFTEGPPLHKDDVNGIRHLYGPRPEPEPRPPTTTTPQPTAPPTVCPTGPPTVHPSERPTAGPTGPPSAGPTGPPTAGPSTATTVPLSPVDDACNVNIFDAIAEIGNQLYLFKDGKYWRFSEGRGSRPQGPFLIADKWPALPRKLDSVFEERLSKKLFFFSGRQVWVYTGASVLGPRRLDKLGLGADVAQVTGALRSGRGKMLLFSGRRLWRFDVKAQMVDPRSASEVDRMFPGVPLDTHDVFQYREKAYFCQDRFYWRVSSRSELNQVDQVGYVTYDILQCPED
Chain of ADAM17 (P78536 215-824): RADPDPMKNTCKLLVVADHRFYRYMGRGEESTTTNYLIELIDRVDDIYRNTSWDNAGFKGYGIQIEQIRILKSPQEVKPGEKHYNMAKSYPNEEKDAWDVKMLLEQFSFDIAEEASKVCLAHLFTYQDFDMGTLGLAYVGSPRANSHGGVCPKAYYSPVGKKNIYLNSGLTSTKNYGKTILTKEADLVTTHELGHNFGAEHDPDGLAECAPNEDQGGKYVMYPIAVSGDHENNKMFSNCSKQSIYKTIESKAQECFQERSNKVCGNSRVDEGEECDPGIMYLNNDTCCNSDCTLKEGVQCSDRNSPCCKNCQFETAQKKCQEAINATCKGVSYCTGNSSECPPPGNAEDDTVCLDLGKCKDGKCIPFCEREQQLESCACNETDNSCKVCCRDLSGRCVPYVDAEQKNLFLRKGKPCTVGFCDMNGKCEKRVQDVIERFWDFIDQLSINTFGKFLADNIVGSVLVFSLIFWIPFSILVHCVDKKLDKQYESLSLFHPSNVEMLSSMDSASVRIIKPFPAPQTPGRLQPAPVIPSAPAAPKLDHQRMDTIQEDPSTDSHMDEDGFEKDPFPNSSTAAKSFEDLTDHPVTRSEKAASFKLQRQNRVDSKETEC

The viability is a read-out of living cells in per cent, often relative to untreated cells. In the case of `O=C(Cc1c(-c2cccc(C(=O)O)c2)n[nH]c1-c1cc(F)c(O)c(Cl)c1)NO` [16j, 3-[5-(3-Chloro-5-fluoro-4-hydroxy-phenyl)-4-[2-(hydroxyamino)-2-oxo-ethyl]-1H-pyrazol-3-yl]benzoic acid], the Ki in [1] was found to be 0.2 nM; in series [8], 0.1 nM. Besides, in series [2], the “residual activities of the respective MMPs and ADAMs” value is “above 90%”. In addition, the remaining activity at 10 µM came to 95% in [3]; 90% in series [4]; 99% in [6]; 94% in series [7]; 105% in series [9]. The viability at 24 h, 30 µM was 110% in series [5] and 98% in series [10]. In addition, the “SF: selectivity factor (Ki(app) meprin β/Ki(app) meprin α)” value (shortened to “SF: selectivity factor”) in [8] was 2.
Regarding `O=C(Cc1c(-c2ccccc2)nn(Cc2ccc(Cl)c(O)c2F)c1-c1ccccc1)NO` [21i, 2-[1-[(4-Chloro-2-fluoro-3-hydroxy-phenyl)methyl]-3,5-diphenyl-pyrazol-4-yl]ethane-hydroxamic acid], the Ki in [1] stood at 9.3 nM. Moreover, the remaining activity at 10 µM turned out to be 69% in series [3]; 85% in series [4]; 72% in [6]; 70% in series [7]; 84% in series [9]. The results for the viability at 24 h, 30 µM in series [5] and in [10] were 79% and 107%, respectively. The “SF: selectivity factor” value in [8] was determined as 116.
With `O=C(Cc1c(-c2cc(F)c(O)c(Cl)c2)n[nH]c1-c1ccccc1)NO` [14m, 2-[3-(3-Chloro-5-fluoro-4-hydroxyphenyl)-5-phenyl-1H-pyrazol-4-yl]ethanehydroxamic acid], the Ki was found to be 0.4 nM in series [1] and 0.1 nM in series [8]. The remaining activity at 10 µM in series [3] turned out to be 66%; in [4], 104%; in series [6], 68%; in series [7] it was 86%; in series [9], 88%. The viability at 24 h, 30 µM was determined as 86% in series [5] and 103% in series [10]. The “SF: selectivity factor” value in [8] was 3.
On to `O=C(Cc1c(-c2ccccc2)nn(Cc2cccc(C(=O)O)c2)c1-c1ccccc1)NO` [21g, 3-[[4-[2-(Hydroxyamino)-2-oxo-ethyl]-3,5-diphenyl-pyrazol-1-yl]methyl]benzoic acid], for which the Ki stood at 10.6 nM in series [1] and 0.3 nM in series [8]. Also, the “fold increase in potency against meprin β” value in series [1] came to 30 fold. Further, the remaining activity at 10 µM in series [3] came out at 89%; in series [4], 92%; in [6], 84%; in [7], 83%; in series [9], 83%. For the same molecule, the viability at 24 h, 30 µM in series [5] was 85%; in series [10] it was 99%. In addition, in series [8] (compared to 21e), the “fold improved activity against meprin α” value worked out at 3 fold. Moreover, in series [8], the “SF: selectivity factor” value turned out to be 35.
On to `O=C(CCc1c(-c2ccccc2)nn(Cc2ccc(Cl)c(O)c2F)c1-c1ccccc1)NO` [compound 22, 3-[1-[(4-Chloro-2-fluoro-3-hydroxy-phenyl)methyl]-3,5-diphenyl-pyrazol-4-yl]propane-hydroxamic acid], for which, in series [1] (compared to 21i), the “activity against meprin β dropped by factor” value is given as roughly 120. Also, the remaining activity at 10 µM is 102% in series [3]; 117% in [4]; 90% in [6]; 100% in series [7]; 98% in series [9]. Also, the viability at 24 h, 30 µM was determined as 98% in [5] and 100% in [10]. Further, the “SF: selectivity factor” value in series [8] is 7892.
In the case of `O=C(Cc1c(-c2ccccc2)nn(Cc2ccc(C(=O)O)cc2)c1-c1ccccc1)NO` [21h, 4-[[4-[2-(Hydroxyamino)-2-oxo-ethyl]-3,5-diphenyl-pyrazol-1-yl]methyl]benzoic acid], the Ki came out at 9.4 nM in [1] and 0.4 nM in series [8]. In addition, the “fold increase in potency against meprin β” value in series [1] is recorded as 30 fold. The remaining activity at 10 µM in series [3] is 85%; in series [4], 91%; in series [6], 67%; in [7], 80%; in series [9], 86%. The viability at 24 h, 30 µM was determined as 88% in series [5] and 103% in [10]. The “SF: selectivity factor” value in series [8] is recorded as 24.
